Experimental data taken from US4835163A, “N-alkoxyalkyl derivatives of quinolone carboxamides” (Sanofi, priority 1986, dated 1989).

Tests used:
[1] = anticonvulsive activity, test with pentetrazol; assay type: in vivo, mice (male CD1); details: Mus musculus, 0.5 h; oral route, 30 minutes before pentetrazol 135 mg/kg s.c.; dose which avoids attacks in half of the animals; read-out: DE50 (the source's name)
Method: This activity has been studied by the test with pentetrazol, according to the method of EVERETT and RICHARDS (J. Pharm. Exp. Ther. 1944, 81, 402-407).
Thus the DE50 is determined, which is the dose which avoids the appearance of attacks in half of the animals. The DE 50 has been calculated by the method of D. K. Finney (Probit analysis; University Press; Cambridge; 1971).

[2] = acute oral toxicity (LD 50); details: mouse, in vivo, mice
Text: The components of the invention benefit from a good tolerance and a weak toxicity. […] 1, in mice.

[3] = antagonist activity vis a vis the hypnotic effects of benzodiazepines; details: 25 mg/kg i.p., 15 minutes before diazepam 6 mg/kg i.p.; control 97 ± 12; * P < 0.05 vs control
[4] = locomotive activity, photoelectric cell actimeter; assay type: in vivo, mice (male CD1); details: 32 mg/kg O.R.; untreated mice 553 ± 200; P <0.05 (Student test)
Method: The mice (male CD1 20-25 g) are placed in groups of three in the cages of a photoelectric cell actimeter. After 30 minutes of getting used to the enclosure, the animas are treated by oral route with the product under test in suspension in carboxymethylcellulose at 1%. A control set of untreated mice receive only the vehicle. Each set contains 12 groups of 3 mice. The movement activity responses are recorded for 80 minutes.

CCCC(CCC)C(=O)[O-].[Na+] [sodium valproate, reference compound]
ED50 [1]: 200 mg/kg

CCCNC(=O)c1cn(COC)c2ccccc2c1=O [derivative no. 1, 1-methoxymethyl-4-oxo-1,4-dihydro-quinoline 3-(N-propyl)carboxamide]
LD50 [2]: 1100 mg/kg
Length of sleep [3]: 39 ± 20 min
ED50 [1]: 55 mg/kg
Movement Activity for 80 min [4]: 1842 ± 470

COCn1cc(C(=O)NC2CCCC2)c(=O)c2ccccc21 [derivative no. 8, 1-methoxymethyl-4-oxo-1,4-dihydro-quinoline 3-(N-cyclopentyl)carboxamide]
ED50 [1]: 108 mg/kg

COCn1cc(C(=O)NC2CC2)c(=O)c2ccccc21 [derivative no. 7, 1-methoxymethyl-4-oxo-1,4-dihydro-quinoline 3-(N-cyclopropyl)carboxamide]
Length of sleep [3]: 32 ± 11 min
ED50 [1]: 67 mg/kg

CCCNC(=O)c1cn(COCC)c2ccccc2c1=O [derivative no. 13, 1-ethoxymethyl-4-oxo-1,4-dihydro-quinoline 3-(N-propyl)carboxamide]
ED50 [1]: 75 mg/kg

CCCNC(=O)c1cn(CCOC)c2ccccc2c1=O [derivative no. 15, 1-methoxyethyl-4-oxo-1,4-dihydro-quinoline 3-(N-propyl)carboxamide]
ED50 [1]: 50 mg/kg

CCCNC(=O)c1cn(COC)c2c(F)cccc2c1=O [derivative no. 10, 1-methoxymethyl-4-oxo-8-fluoro-1,4-dihydro-quinoline 3-(N-propyl)carboxamide]
ED50 [1]: 53 mg/kg

COCn1cc(C(=O)NCC(C)C)c(=O)c2ccccc21 [derivative no. 5, 1-methoxymethyl-4-oxo-1,4-dihydro-quinoline 3-(N-isobutyl)carboxamide]
Length of sleep [3]: 62 ± 10 min
ED50 [1]: 46 mg/kg

CCCNC(=O)c1cn(COC)c2ccc(F)cc2c1=O [derivative no. 9, 1-methoxymethyl-4-oxo-6-fluoro-1,4-dihydro-quinoline 3-(N-propyl)carboxamide]
Length of sleep [3]: 22 ± 8 min
ED50 [1]: 62 mg/kg

CCCNC(=O)c1cn(CCOCC)c2ccccc2c1=O [derivative no. 14, 1-ethoxyethyl-4-oxo-1,4-dihydro-quinoline 3-(N-propyl)carboxamide]
ED50 [1]: 79 mg/kg

CCNC(=O)c1cn(COC)c2ccccc2c1=O [derivative no. 3, 1-methoxymethyl-4-oxo-1,4-dihydro-quinoline 3-(N-ethyl)carboxamide]
Length of sleep [3]: 9 ± 4 min

CCC1(c2ccccc2)C(=O)NC(=O)NC1=O [phenobarbital, reference compound]
ED50 [1]: 10 mg/kg

CCCNC(=O)c1cn(COC)c2ccc(OC)cc2c1=O [derivative no. 12, 1-methoxymethyl-4-oxo-6-methoxy-1,4-dihydro-quinoline 3-(N-propyl)carboxamide]
ED50 [1]: 65 mg/kg

CCCNC(=O)c1cn(COC)c2c(Cl)cccc2c1=O [derivative no. 11, 1-methoxymethyl-4-oxo-8-chloro-1,4-dihydro-quinoline 3-(N-propyl)carboxamide]
ED50 [1]: 21 mg/kg
